From patent US4643991A (The University of Kentucky Research Foundation, priority 1984, dated 1987) come the findings set out here.

Assay [1] addresses porcine pancreatic elastase (Sus scrofa, UniProt P00772). The experiment in a line: Inhibition of porcine pancreatic (PP) elastase in vitro, substrate BOC-Ala-ONp, Lineweaver-Burk and Dixon plots. The format is biochemical. The note with it: for PPE (inhibitory activity towards PP elastase): Table 4. As for the experimental part: As pointed out above, the compounds of the invention are useful as elastase inhibitors. To evaluate the compounds, the inhibitory activity of the compounds were tested in vitro against the serine dependent proteolytic enzymes, trypsin, chymotrypsin and porcine pancreatic elastase. All three enzymes belong to the family of serine proteases where the catalytic residues are composed of a triad of amino acid residues, serine, histidine and aspartic acid that actually perform the peptide bond hydrolysis. In addition to the catalytic residues, the active site is composed of an extended substrate binding site that consists of a primary substrate binding site S1, and various subsites on either side of the scissile bond.
The rate and extent of inhibition could be effected by varying the structure of R and R'. As shown from kinetic parameters when R is p-nitrophenol, and R' was varied, all the peptidyl carbamates inhibited PP elastase except when R' was a tert-butyl group. […] In all cases the inhibition was specific and competitive. […] Moreover, the nature of the protecting group (P5) seemed to affect the affinity of the inhibitor for the enzyme. In all these cases the inhibition was studied at different substrate and inhibitor concentrations and the mode of inhibition determined from Lineweaver-Burk and Dixon plots. Ki values were calculated from the latter. […] The enzymatic activity of PP elastase after treatment with the inhibitor(s) was also tested using the natural substrate elastin-congored.

The target of assay [2] is T1, HL elastase (Homo sapiens, UniProt P08246).
T1 sequence (P08246 30-267): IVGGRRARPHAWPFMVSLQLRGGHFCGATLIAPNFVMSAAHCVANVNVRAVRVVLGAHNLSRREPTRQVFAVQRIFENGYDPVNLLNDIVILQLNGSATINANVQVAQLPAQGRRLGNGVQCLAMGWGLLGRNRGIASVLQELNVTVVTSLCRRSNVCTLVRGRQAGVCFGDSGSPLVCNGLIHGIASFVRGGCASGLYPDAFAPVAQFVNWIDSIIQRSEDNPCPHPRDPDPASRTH
As to the kind of experiment: Inhibition of human leukocyte (HL) elastase. The format is biochemical. The settings on record: Table 4; [E] = 0.61 μM.

Where [3] appears, read: Table 1, changes in P1', PP elastase, read-out: Ki.
Setting [4] is: Table 1, changes in P1', [E] = 0.61 μM.
The mark [5] stands for this setting: Table 3, variations in P5 and P3.
The mark [6] stands for this setting: Table 2, changes in P1, [E] = 0.61 μM.

Molecules are shown by their SMILES. Where two headings read alike, the source gives them in different places.

porcine pancreatic elastase, sequence (P00772 27-266): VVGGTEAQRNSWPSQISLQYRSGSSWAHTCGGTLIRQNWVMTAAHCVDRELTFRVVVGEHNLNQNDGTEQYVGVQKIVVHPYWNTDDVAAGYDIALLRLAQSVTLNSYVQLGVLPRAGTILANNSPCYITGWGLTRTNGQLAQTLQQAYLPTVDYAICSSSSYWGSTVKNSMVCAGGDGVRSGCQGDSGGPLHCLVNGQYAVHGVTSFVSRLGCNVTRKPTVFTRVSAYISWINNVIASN

In the case of `COC(=O)CCC(=O)N[C@@H](C)C(=O)N[C@@H](C)C(=O)N1CCC[C@H]1C(=O)CN(C(=O)Oc1c(F)c(F)c(F)c(F)c1F)C(C)C` [Compound 58, Pentafluorophenyl N-(methyl succinyl-L-analyl-L-alanyl-L-prolymethyl)-N-isopropyl-carbamate], in assay [1] (setting [3]), the Ki was 37.5 µM. Besides, the “Comments (inhibition of PP elastase)” value in assay [1] (setting [4]) and in assay [1] (setting [5]) was “+” throughout.

`COC(=O)CCC(=O)N[C@@H](C)C(=O)N[C@@H](C)C(=O)N1CCC[C@H]1C(=O)CN(C(=O)Oc1ccc([N+](=O)[O-])cc1)C(C)C` [Compound 10, p-Nitrophenyl N-(Methy Succinyl-L-Alanyl-L-Alanyl-L-Prolymethyl)-N-Isopropyl Carbamate]: the inhibition constant (Ki) in assay [1] (setting [3]) came out at 42.5 µM. Besides, the “Comments (inhibition of PP elastase)” value in assay [1] (setting [4]) and in assay [1] (setting [6]) was “+” each time. Take `CCCN(CC(=O)[C@@H]1CCCN1C(=O)[C@H](C)NC(=O)[C@H](C)NC(=O)CCC(=O)OC)C(=O)Oc1ccc([N+](=O)[O-])cc1` [Compound 29, P-Nitrophenyl N-(methyl succinyl-L-alanyl-L-alanyl-L-prolylmethyl) N-propylcarbamate]: the Ki in assay [1] (Table 2, changes in P1, PP elastase, read-out: Ki) is 30.5 µM. Besides, the “Comments (inhibition of PP elastase)” value in assay [1] (setting [6]) is “+”. In the case of `COC(=O)CCC(=O)N[C@@H](C)C(=O)N[C@@H](C)C(=O)N1CCC[C@H]1C(=O)CN(C)C(=O)Oc1ccc([N+](=O)[O-])cc1` [Compound 68, p-Nitropheny N-(methyl succinyl-L-alanyl-L-alanyl-L-prolymethyl)-N-methyl-carbamate], the “Comments (inhibition of PP elastase)” value in assay [1] (setting [6]) was “+”.

Turning to `COC(=O)CCC(=O)N[C@@H](C)C(=O)N[C@@H](C)C(=O)N1CCC[C@H]1C(=O)CN(C(=O)OCC(F)(F)C(F)(F)C(F)(F)F)C(C)C` [Compound 61, Heptafluorobutyl N-(methyl succinyl-L-alanyl-L-alanyl-L-prolylmethyl)-N-isopropylcarbamate], in assay [1] (setting [4]), the “Comments (inhibition of PP elastase)” value was “+”. Take `COC(=O)CCC(=O)N[C@@H](C)C(=O)N[C@@H](C)C(=O)N1CCC[C@H]1C(=O)CN(C(=O)Oc1ccccc1)C(C)C` [Compound 11, Phenyl N-(Methyl Succinyl-L-Alanyl-L-Alanyl-L-Prolyl Methyl)-N-Isopropyl Carbamate]: the Ki in assay [1] (setting [3]) was 32.5 µM. For the same compound, the “Comments (inhibition of PP elastase)” value in assay [1] (setting [4]) was “+”. Consider `COC(=O)CCC(=O)N[C@@H](C)C(=O)N[C@@H](C)C(=O)N1CCC[C@H]1C(=O)CN(C(=O)Oc1ccc([N+](=O)[O-])cc1)C1CCCCC1` [Compound 55, P-Nitrophenyl N-(methyl succinyl-L-alanyl-L-alanyl-L-prolylmethyl)-N-cyclohexylcarbamate], for which, in assay [1] ([E] = 0.61 μM), the “PPE (inhibitory activity towards PP elastase)” value was “- (No inhibition at [I] < 150 μM using [E] = 0.61 μM.)”. The “HLE (inhibitory activity towards HL elastase)” value in assay [2] is “- (No inhibition at [I] < 150 μM using [E] = 0.61 μM.)”.

In the case of `COC(=O)CCC(=O)N[C@@H](C)C(=O)N[C@@H](C)C(=O)N1CCC[C@H]1C(=O)CN(C(=O)Sc1nnnn1C)C(C)C` [Compound 18], the Ki in assay [1] (setting [3]) came to 14.8 µM. For the same compound, in assay [1] (setting [4]), the “Comments (inhibition of PP elastase)” value is “+”.

On to `COC(=O)CCC(=O)N[C@@H](C)C(=O)N[C@@H](C)C(=O)N1CCC[C@H]1C(=O)CN(Cc1ccccc1)C(=O)Oc1ccc([N+](=O)[O-])cc1` [Compound 51, P-Nitrophenyl N-(methyl succinyl-L-alanyl-L-alanyl-L-prolylmethyl)-N-phenylmethylcarbamate], for which the “PPE (inhibitory activity towards PP elastase)” value in assay [1] ([E] = 0.61 μM) was “- (No inhibition at [I] < 150 μM using [E] = 0.61 μM.)”. Also, in assay [2], the “HLE (inhibitory activity towards HL elastase)” value is “- (No inhibition at [I] < 150 μM using [E] = 0.61 μM.)”. Consider `C[C@H](NC(=O)OC(C)(C)C)C(=O)Oc1ccc([N+](=O)[O-])cc1` [BOC-Ala-ONp, reference compound], for which the Km in assay [1] (substrate of PP elastase assay) amounted to 4.8 mM. For the compound `COC(=O)CCC(=O)N[C@@H](C)C(=O)N[C@@H](C)C(=O)N1CCC[C@H]1C(=O)CN(CC(C)C)C(=O)Oc1ccc([N+](=O)[O-])cc1` [Compound 47, p-Nitrophenyl N-(methylsuccinyl-L-alanyl-L-alanyl-L-prolylmethyl)-N-(2-methyl)propylcarbamate], in assay [1] ([E] = 0.61 μM), the “PPE (inhibitory activity towards PP elastase)” value is “- (No inhibition at [I] < 150 μM using [E] = 0.61 μM.)”. For the compound `CC(C)N(CC(=O)[C@@H]1CCCN1C(=O)OC(C)(C)C)C(=O)Oc1ccc([N+](=O)[O-])cc1` [Compound 6, p-Nitrophenyl N-(N'-t-Boc-L-prolyl)Methyl-N-Isopropylcarbamate], the “Hydrolysis by PP elastase” value in assay [1] (detected by the release of p-nitrophenol) is “hydrolysis of 6 by PP elastase”.

Take `CC(C)N(CC(=O)[C@@H]1CCCN1C(=O)[C@H](C)NC(=O)[C@H](C)NC(=O)C(F)(F)F)C(=O)Oc1c(F)c(F)c(F)c(F)c1F` [Compound 93, Pentafluorophenyl N-(trifluoroacetyl-L-alanyl-L-alanyl-L-prolylmethyl)-N-isopropylcarbamate]: the affinity in assay [1] corresponds to a Ki of 49 µM. Besides, in assay [1] (setting [5]), the “Comments (inhibition of PP elastase)” value is “+”. Take `COC(=O)CCC(=O)N[C@@H](C)C(=O)N[C@@H](C)C(=O)N1CCC[C@H]1C(=O)CN(C(=O)Oc1ccc([N+](=O)[O-])cc1)C(C)(C)C` [Compound 72]: the “Comments (inhibition of PP elastase)” value in assay [1] (setting [6]) was “- (NO INHIBITION OF PP ELASTASE AT [I] < 150 μM USING [E] = 0.61 μM)”. Still for that read-out and setting: the result for `COC(=O)CCC(=O)N[C@@H](C)C(=O)N[C@@H](C)C(=O)N1CCC[C@H]1C(=O)CN(C(=O)Oc1ccc([N+](=O)[O-])cc1)C1CC1` [Compound 32, P-Nitrophenyl N-(methyl succinyl-L-alanyl-L-analyl-L-prolylmethyl)-N-cyclopropylcarbamate] reads “+”.

For orientation: Ki means the equilibrium dissociation constant of an inhibitor or competing ligand from its target. As a reminder, the Km is the concentration of substrate that gives half-maximal velocity.
